Where “and” joins values, the source holds several entries; their conditions need not be identical. Equal values may be shown once. Values belong to the compound of their own block, whether it stands above or below them.
System: 454973-116-R2-J3-PDC complex spheroid viability
Assay: Anticancer human tumor 454973-116-R2-J3-PDC patient-derived pancreatic carcinoma cell line growth inhibition [POLQ]
Conditions: for viability, T/C: stronger effect = lower value
Procedure: Multicellular complex tumor spheroid response to Polymerase (POL) inhibitors (novobiocin, ART-558, RP6685) in combination with a variety of drugs and investigational agents in selected tumor cell lines
The POL inhibitors (novobiocin, ART-558, and RP6685) were evaluated both individually and in combination with standard of care and investigational anticancer small molecules within a complex spheroid model of solid tumors. . Complex spheroids include a stromal component modeled by human endothelial cells (HUVEC) and fibroblasts modeled by human mesenchymal stem cells (MSCs). The concentration ranges selected for each drug and investigational agent were based upon clinically achievable concentrations if the clinical Cmax of the agent was known.
Compounds. The drugs and investigational agents: novobiocin (NSC847541), ART-558 (NSC835418), RP-6685 (NSC848927), peposertib (NSC802822), ceralasertib (NSC780249), elimusertib (NSC800525), camonsertib (NSC841442), AZD-1390 (NSC803789), olaparib (NSC753686), talazoparib (NSC767125), rucaparib (NSC756644), sotorasib (NSC818433), MRTX-1133 (NSC836407), SN-38 (NSC673596), topotecan (NSC609699), epotoside (NSC141540), doxorubicin (NSC123127), gemcitabine (NSC613327), 5-fluorouracil (NSC19893), paclitaxel (NSC125973), vemurafenib (NSC761431), MSA-2 (NSC828583), SN-011 (NSC837082), adavosertib (NSC754352), prexasertib (NSC758257), carboplatin (NSC241240) and oxaliplatin (NSC266046), were obtained from the National Cancer Institute (NCI) Developmental Therapeutics Program Chemical Repository (21). The FDA-approved anticancer drug set is available from the Developmental Therapeutics Program at https://dtp.cancer.gov/organization/dscb/obtaining/. […] The stock solutions were prepared in dimethyl sulfoxide (DMSO, Sigma-Aldrich, St. Louis, MO, cat. D2650), except for the platinum compounds which were prepared in saline (Quality Biological, Gaithersburg, MD, cat. 114-055-101), at 800-fold the tested concentration and stored at -70 degrees C prior to their use. All drugs and investigational agents were tested over a range starting from a high concentration at or near the clinical Cmax and decreasing in half-log increments. If the clinical Cmax for an agent had not been determined, the highest concentration tested was 10 microM, except for SN-38, which was tested at a high concentration of 1 microM.
Cell Culture. All cells were maintained in an incubator at 37 degrees C and 5% CO2 with 95% humidity. The PDC lines were cultured according to standard operating procedures established by the NCI PDMR (https://pdmr.cancer.gov). Table 3 of the manuscript, lists the cell lines along with the number of the three cell types plated to form the mct-spheroids and media for tumor cell growth. After thawing, all PDC lines, except 997537-175-T-J1-PDC and 415267-285-R-J2-PDC, were cultured in Matrigel-coated flasks prepared with a working solution of 1X Ham's F-12 nutrient mix, without supplementation (Thermo Fisher Scientific, cat. 11765054), 100 U/mL penicillin-streptomycin (Thermo Fisher Scientific, cat. 15140122), and 2.5% Matrigel (Corning Inc., Corning, NY, cat. 354248) for the first three passages. The two PDC lines 997537-175-T-J1-PDC and 415267-285-R-J2-PDC were cultured on uncoated flasks. The 857933-349-R-J2-PDC line was cultured in 6C/Colon 1B media containing advanced DMEM/F-12 (Thermo Fisher Scientific, cat. 12634028), 10 mM HEPES (Thermo Fisher Scientific, cat. 15630080), 1X GlutaMAX supplement (Thermo Fisher Scientific, cat. 35050061), 0.1 mg/mL primocin (InvivoGen, San Diego, CA, cat. ant-pm-2), 10% defined fetal bovine serum, heat inactivated (HyClone Laboratories Inc., Logan, UT, cat. SH30070.03HI), 50% L-WRN conditioned media (ATCC, cat. CRL-3276), 1.25 mM N-Acetyl-L-cysteine (Sigma-Aldrich, cat. A9165), 10 mM nicotinamide (Sigma-Aldrich, cat. N0636), 1X B-27 supplement (Thermo Fisher Scientific, cat. 17504044), 1X N-2 supplement (Thermo Fisher Scientific, cat. […]
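Note: spheroids exposed to drugs for seven days before measurement.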
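Throughout, for viability, T/C: percent viability relative to DMSO vehicle control wells taken as 100%.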

Structure (SMILES): CNCc1ccc(-c2[nH]c3cc(F)cc4c3c2CCNC4=O)cc1
viability, T/C (compound 0.0316 µM): 103% and 105% and 99% | viability, T/C (compound 0.1 µM): 91.9% and 102% and 93% | viability, T/C (compound 0.316 µM): 97% and 98.4% and 112% | viability, T/C (compound 1 µM): 100% and 106% and 97.7% | viability, T/C (compound 3.16 µM): 111% and 101% and 102% | viability, T/C (compound 10 µM): 81.6% and 96.5% and 83.7% | IC50 (curve of compound): > 10000 nM

Structure (SMILES): CCc1cc2c(N3CCc4c(cc(Cn5ccnc5)cc4-c4cn(C)nc4C(F)(F)F)C3=O)ccnc2c(OC)n1
viability, T/C (compound 0.0316 µM): 109% and 100% and 101% | viability, T/C (compound 0.1 µM): 95.6% and 93% and 84.3% | viability, T/C (compound 0.316 µM): 98.7% and 82.7% and 86.3% | viability, T/C (compound 1 µM): 87.5% and 83.7% and 77.2% | viability, T/C (compound 3.16 µM): 89.3% and 71.8% and 72.8% | viability, T/C (compound 10 µM): 68% and 70.2% and 53.9% | IC50 (curve of compound): > 10000 nM

Structure (SMILES): C=CC(=O)N1CCN(c2nc(=O)n(-c3c(C)ccnc3C(C)C)c3nc(-c4c(O)cccc4F)c(F)cc23)C(C)C1 (configuration not stated)
viability, T/C (compound 0.0316 µM): 109% (2×) and 106% | viability, T/C (compound 0.1 µM): 97% and 98.6% and 100% | viability, T/C (compound 0.316 µM): 105% and 112% and 106% | viability, T/C (compound 1 µM): 104% and 113% and 107% | viability, T/C (compound 3.16 µM): 108% and 104% and 114% | viability, T/C (compound 10 µM): 107% and 113% and 112% | IC50 (curve of compound): > 10000 nM

Structure (SMILES): CCc1c2c(nc3ccc(O)cc13)-c1cc3c(c(=O)n1C2)COC(=O)[C@]3(O)CC + COC1C(OC(N)=O)C(O)C(Oc2ccc3c(O)c(NC(=O)c4ccc(O)c(CC=C(C)C)c4)c(=O)oc3c2C)OC1(C)C
IC50 (curve of first compound, second compound 0.0316 µM): < 3.16 nM | IC50 (curve of first compound, second compound 0.1 µM): < 3.16 nM | IC50 (curve of first compound, second compound 0.316 µM): < 3.16 nM | IC50 (curve of first compound, second compound 1 µM): < 3.16 nM | IC50 (curve of first compound, second compound 3.16 µM): < 3.16 nM | IC50 (curve of first compound, second compound 10 µM): < 3.16 nM | viability, T/C (second compound 0.0316 µM, first compound 0.00316 µM): 37.3% | viability, T/C (second compound 0.0316 µM, first compound 0.01 µM): 16.3% | viability, T/C (second compound 0.0316 µM, first compound 0.0316 µM): 8.76% | viability, T/C (second compound 0.0316 µM, first compound 0.1 µM): 4.34% | viability, T/C (second compound 0.0316 µM, first compound 0.316 µM): 4.57% | viability, T/C (second compound 0.0316 µM, first compound 1 µM): 0.92% | viability, T/C (second compound 0.1 µM, first compound 0.00316 µM): 38.9% | viability, T/C (second compound 0.1 µM, first compound 0.01 µM): 13.7% | viability, T/C (second compound 0.1 µM, first compound 0.0316 µM): 10.5% | viability, T/C (second compound 0.1 µM, first compound 0.1 µM): 6.92% | viability, T/C (second compound 0.1 µM, first compound 0.316 µM): 2.75% | viability, T/C (second compound 0.1 µM, first compound 1 µM): 1.04% | viability, T/C (second compound 0.316 µM, first compound 0.00316 µM): 37.1% | viability, T/C (second compound 0.316 µM, first compound 0.01 µM): 15.8% | viability, T/C (second compound 0.316 µM, first compound 0.0316 µM): 14.7% | viability, T/C (second compound 0.316 µM, first compound 0.1 µM): 4.68% | viability, T/C (second compound 0.316 µM, first compound 0.316 µM): 2.98% | viability, T/C (second compound 0.316 µM, first compound 1 µM): 1.19% | viability, T/C (second compound 1 µM, first compound 0.00316 µM): 34.1% | viability, T/C (second compound 1 µM, first compound 0.01 µM): 14.2% | viability, T/C (second compound 1 µM, first compound 0.0316 µM): 12.5% | viability, T/C (second compound 1 µM, first compound 0.1 µM): 6.32% | viability, T/C (second compound 1 µM, first compound 0.316 µM): 3.96% | viability, T/C (second compound 1 µM, first compound 1 µM): 3.08% | viability, T/C (second compound 3.16 µM, first compound 0.00316 µM): 31.2% | viability, T/C (second compound 3.16 µM, first compound 0.01 µM): 13.9% | viability, T/C (second compound 3.16 µM, first compound 0.0316 µM): 9.37% | viability, T/C (second compound 3.16 µM, first compound 0.1 µM): 4.13% | viability, T/C (second compound 3.16 µM, first compound 0.316 µM): 2.03% | viability, T/C (second compound 3.16 µM, first compound 1 µM): 2.74% | viability, T/C (second compound 10 µM, first compound 0.00316 µM): 29.1% | viability, T/C (second compound 10 µM, first compound 0.01 µM): 15.1% | viability, T/C (second compound 10 µM, first compound 0.0316 µM): 11.4% | viability, T/C (second compound 10 µM, first compound 0.1 µM): 6.62% | viability, T/C (second compound 10 µM, first compound 0.316 µM): 3.37% | viability, T/C (second compound 10 µM, first compound 1 µM): 1.53%

IC50 (compound alone, run of 11/06/2023): > 10000 nM
Structure (SMILES): Nc1ccc(C#CCN(C(=O)Cc2ncc(C(F)(F)F)cc2C(F)(F)F)c2ccc(F)cc2)nn1
viability, T/C (compound 0.0316 µM): 109% [middle of 13 runs] | viability, T/C (compound 0.1 µM): 106% [middle of 13 runs] | viability, T/C (compound 0.316 µM): 107% [middle of 13 runs] | viability, T/C (compound 1 µM): 104% [middle of 13 runs] | viability, T/C (compound 3.16 µM): 105% [middle of 13 runs] | viability, T/C (compound 10 µM): 112% [middle of 13 runs]

Structure (SMILES): COC1C(OC(N)=O)C(O)C(Oc2ccc3c(O)c(NC(=O)c4ccc(O)c(CC=C(C)C)c4)c(=O)oc3c2C)OC1(C)C (configuration not stated)
viability, T/C (compound 0.0316 µM): 106% [middle of 13 runs] | viability, T/C (compound 0.1 µM): 111% [middle of 13 runs] | viability, T/C (compound 0.316 µM): 105% [middle of 13 runs] | viability, T/C (compound 1 µM): 102% [middle of 13 runs] | viability, T/C (compound 3.16 µM): 102% [middle of 13 runs] | viability, T/C (compound 10 µM): 109% [middle of 13 runs] | IC50 (compound alone, run of 10/31/2023): > 10000 nM

Reference: PubChem BioAssay AID1963846 (Molecular Pharmacology Branch, DTP, NCI, 2024)
